Test results as given in PMC3171408, “Analysis of the BarA/UvrY Two-Component System in Shewanella oneidensis MR-1” (PLoS ONE, 2011).

Molecular target: T1, BarA(181–929) (Shewanella oneidensis, UniProt Q8EBQ2)
T1 construct: cytoplasmic region aa 181-929 of 929 aa (full length 103 kDa; two N-terminal TM domains removed), N-terminal 6xHis tag (pBAD-HisA), expressed in E. coli, Ni-NTA purified
T1 sequence (Q8EBQ2 187-935): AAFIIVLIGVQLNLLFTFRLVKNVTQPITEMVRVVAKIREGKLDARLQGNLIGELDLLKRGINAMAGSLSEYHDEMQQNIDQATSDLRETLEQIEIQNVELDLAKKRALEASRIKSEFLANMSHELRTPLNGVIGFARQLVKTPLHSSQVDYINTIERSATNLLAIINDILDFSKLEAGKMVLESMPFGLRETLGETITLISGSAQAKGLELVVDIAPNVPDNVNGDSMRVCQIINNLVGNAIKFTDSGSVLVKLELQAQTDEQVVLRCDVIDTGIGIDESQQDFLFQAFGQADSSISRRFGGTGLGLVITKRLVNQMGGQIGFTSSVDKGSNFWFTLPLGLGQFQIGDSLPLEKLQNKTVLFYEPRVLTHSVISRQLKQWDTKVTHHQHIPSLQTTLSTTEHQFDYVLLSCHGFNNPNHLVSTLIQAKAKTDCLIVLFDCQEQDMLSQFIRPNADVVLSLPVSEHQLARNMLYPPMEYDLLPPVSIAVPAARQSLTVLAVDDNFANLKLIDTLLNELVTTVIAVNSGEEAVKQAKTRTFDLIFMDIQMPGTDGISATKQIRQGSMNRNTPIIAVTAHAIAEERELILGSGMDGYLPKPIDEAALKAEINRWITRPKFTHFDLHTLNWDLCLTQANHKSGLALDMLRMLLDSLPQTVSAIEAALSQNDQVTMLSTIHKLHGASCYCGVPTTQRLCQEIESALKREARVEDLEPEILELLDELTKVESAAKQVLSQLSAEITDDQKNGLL
Test: autophosphorylation, SDS-PAGE autoradiography
Assay type: biochemical
Conditions: 0.5 mM ATP, 10 µM protein, 5 mM MgCl2, 50 mM KCl, pH 8.0, room temperature; labelled compound

Nc1ncnc2c1ncn2[C@@H]1O[C@H](COP(=O)(O)OP(=O)(O)OP(=O)(O)O)[C@@H](O)[C@H]1O [[γ-^32P]ATP]
autophosphorylation, SDS-PAGE autoradiography: BarA was readily phosphorylated, indicating autophosphorylation activity of the kinase region.
